Test results: patent US9758559B2, “Short peptides derived from VDAC1, compositions and methods of use thereof” (B.G. NEGEV TECHNOLOGIES AND APPLICATIONS LTD., AT …, priority 2013, dated 2017)
Where a SMILES comes first, the peptide text is derived from it. [ ]: non-standard residue; d: D form.

Assays:
[1] = tested on: glioblastoma xenografts (U87 cells); test: Tumor growth of U87 glioblastoma xenografts in nude mice; assay type: in vivo; settings: xenografts injected with 10 μl of 20 or 40 μM solutions
Description: U87 cells were inoculated into male nude mice (7×10^6 cells/mouse). Tumor volumes were monitored (using a digital caliper) and on day 11, the mice were divided into […] (5 mice per group), with each mouse containing a tumor with a volume between 100-200 mm^3 and similar average volumes measured per group. The four mice groups were subjected to the following treatments: Xenografts were injected with 0.26% DMSO (control), with D-Δ1-14N-Ter-Antp (10 μl of 20 or 40 μM solutions) or with the previously disclosed Tf-LP4 peptide (10 μl of a 20 μM solution).

[2] = target: T1, Mitochondria-Bound Hexokinase 1 (HK-1) (Rattus norvegicus, UniProt P05708); test: Detachment of mitochondria-bound HK-1-GFP in HeLa cells (confocal microscopy); assay type: cell-based; settings: HeLa cells expressing HK-1-GFP, 6 h
T1 construct: expressed in transfected cells; host or cells: HeLa cells
T1 sequence (P05708 1-918): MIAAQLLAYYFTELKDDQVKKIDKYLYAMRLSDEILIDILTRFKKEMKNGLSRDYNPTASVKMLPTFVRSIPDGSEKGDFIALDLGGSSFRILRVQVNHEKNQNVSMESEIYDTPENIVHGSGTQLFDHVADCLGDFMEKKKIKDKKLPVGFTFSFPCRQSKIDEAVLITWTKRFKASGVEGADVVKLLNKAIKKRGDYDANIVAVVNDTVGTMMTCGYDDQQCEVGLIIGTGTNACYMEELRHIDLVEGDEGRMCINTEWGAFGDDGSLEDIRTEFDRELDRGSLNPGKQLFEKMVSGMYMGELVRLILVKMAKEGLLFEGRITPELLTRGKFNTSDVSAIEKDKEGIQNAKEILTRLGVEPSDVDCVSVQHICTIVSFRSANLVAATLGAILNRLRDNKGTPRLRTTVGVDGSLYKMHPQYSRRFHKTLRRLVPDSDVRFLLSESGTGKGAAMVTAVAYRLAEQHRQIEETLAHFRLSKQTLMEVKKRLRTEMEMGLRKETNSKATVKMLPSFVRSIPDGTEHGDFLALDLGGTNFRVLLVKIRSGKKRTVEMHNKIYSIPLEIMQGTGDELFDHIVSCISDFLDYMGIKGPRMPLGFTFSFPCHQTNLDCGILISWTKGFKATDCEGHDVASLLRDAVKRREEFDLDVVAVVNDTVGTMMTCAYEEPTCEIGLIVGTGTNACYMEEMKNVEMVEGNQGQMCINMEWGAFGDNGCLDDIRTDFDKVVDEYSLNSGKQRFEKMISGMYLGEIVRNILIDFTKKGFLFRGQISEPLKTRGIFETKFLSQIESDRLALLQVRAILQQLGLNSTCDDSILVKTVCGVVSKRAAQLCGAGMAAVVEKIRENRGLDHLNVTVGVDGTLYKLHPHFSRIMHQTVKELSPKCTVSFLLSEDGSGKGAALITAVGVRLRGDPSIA
Description: To visualize HK detachment induced by the D-Δ(1-14) N-terminal-Antp peptide, HeLa cells (3×10^5) were grown on Poly-D-Lysine (PDL)-coated coverslips in a 60 mm dish and transfected with pEGFP-HK-I or with plasmid pEGFP. HK-I-GFP fusion protein, in which GFP was connected to the HK-I C-terminal (pEGFP-HK-I), was constructed using an EcoR1 restriction site to introduce GFP into the 3′ (at the stop codon) of HK1 in plasmid pcDNA3.1 by site-directed mutagenesis with overlapping PCR amplification, using the following primers: 5′-[…]-3; (forward, SEQ ID NO:24) and 5′-[…]-3; (reverse, SEQ ID NO:25).
After 48 h, cells were incubated for 6 h with a serum-free medium containing 0.4% DMSO or with the indicated concentration of D-Δ(1-14) N-Ter-Antp peptide. Cells were washed with PBS, fixed for 20 min with 4% paraformaldehyde prepared in PBS, rinsed for 30 min in PBS and cell imaging was carried out by confocal microscopy (Olympus 1×81).

[3] = tested on: glioblastoma cell line U-87; test: Cytochrome c release from mitochondria to cytosol (immunoblot); assay type: cell-based, human; settings: U-87 cells, concentration-dependent
Description: Release of cytochrome c (Cyt c) from mitochondria to the cytosol was measured by immunoblots. Cells were incubated for 5 h with the indicated concentration of the peptide, harvested, washed twice with PBS and gently resuspended in ice-cold buffer (100 mM KCl, 2.5 mM MgCl2, 250 mM sucrose, 20 mM HEPES/KOH pH 7.5, 0.2 mMEDTA, 1 mM dithiothreitol, 1 μg/ml leupeptin, 5 μg/ml cytochalasin B and 0.1 mM phenylmethylsulfonyl fluoride) containing 0.025% digitonin and incubated for 10 min on ice. Samples were centrifuged at 10,000 g at 4° C. for 5 min to obtain the supernatants (cytosolic extracts free of mitochondria) and the pellets (fraction that contains mitochondria). The supernatants were analyzed by SDS-PAGE and immunoprobed using anti-Cyto c antibodies (1:2000, BD Pharmingen™ Cat #556433), and then with secondary horseradish peroxidase (HRP)-conjugated anti-mouse antibodies.
The effect of D-Δ(1-14) N-Ter-Antp on apoptosis was examined in the glioblastoma cell line U-87. U-87 cells were incubated with and without the peptide, treated with digitonin (0.02%) and the release of cytochrome c from mitochondria to the cytosolic fraction was analyzed by immunoblotting.

glioblastoma U-87 cells = test: ATP quantification (CellTiter-Glo); assay type: cell-based, human; settings: 3 h incubation
Description: U-87 cells were seeded in 96-well plates (2×10^6/ml), incubated for 3 h with the indicated concentrations of D-Δ1-14N-Ter-Antp (SEQ ID NO:9), washed twice with PBS and incubated with the CellTiter-Glo reagent (Promega). Luminescence was recorded using an Infinite M1000 microplate reader (Tecan Trading, Mannedorf, Switzerland).
VDAC1 is a key component in regulating the energy production of the cell. It is known that cancer cells are characterized by elevated energy demand. The effects of D-Δ(1-14) N-Ter-Antp on the mitochondrial inner membrane polarization and cellular ATP level were examined using glioblastoma U-87 cells. U-87 cells were incubated for 3 h with the various concentrations of D-Δ1-14N-Ter-Antp or with FCCP (10 μM, control for depolarization) for 1 h.

CC[C@@H](C)[C@@H](NC(=O)[C@@H](CCCCN)NC(=O)[C@H](NC(=O)[C@@H](CCC(N)=O)NC(=O)[C@@H](CCCNC(=N)N)NC(=O)[C@@H](CC(C)C)NC(=O)CNC(=O)[C@@H](Cc1ccccc1)NC(=O)CNC(=O)[C@@H](Cc1ccc(O)cc1)NC(=O)CNC(=O)[C@@H](CCCCN)NC(=O)[C@H](NC(=O)[C@@H](Cc1ccccc1)NC(=O)[C@H](NC(=O)[C@@H](CC(=O)O)NC(=O)[C@H](N)CCCNC(=N)N)C(C)C)[C@H](C)O)[C@H](C)CC)C(=O)N[C@H](Cc1c[nH]c2ccccc12)C(=O)N[C@H](Cc1ccccc1)C(=O)N[C@H](CCC(N)=O)C(=O)N[C@H](CC(N)=O)C(=O)N[C@H](CCCNC(=N)N)C(=O)N[C@H](CCCNC(=N)N)C(=O)N[C@H](CCSC)C(=O)N[C@H](CCCCN)C(=O)N[C@H](Cc1c[nH]c2ccccc12)C(=O)N[C@H](CCCCN)C(=O)N[C@H](CCCCN)C(=O)O [D-Δ(1-14) N-Ter-Antp, ALL D-RDVFTKGYGFGL RQIKIWFQNRRMKWKK] (H-[dR][dD][dV][dF][dT][dK]G[dY]G[dF]G[dL][dR][dQ][dI][dK][dI][dW][dF][dQ][dN][dR][dR][dM][dK][dW][dK][dK]-OH)
tumor size [1]: significantly reduced the tumor size | HK-1-GFP detachment from the mitochondria [2]: diffusion of HK-1-GFP out into the cytosol is observed | release of cytochrome c from the mitochondria [3]: significantly induced | cellular ATP level (glioblastoma U-87 cells): almost complete reduction of cellular ATP level
